What was measured:
Type in all cases: functional
SK-MEL-28 [1] = experiment: Cytotoxicity against human SK-MEL-28 cells assessed as cell growth at 10^-4 M after 48 hrs by SRB assay relative to control; settings: SK-MEL-28, 48 h, read-out: Activity
HT-29 = experiment: Cytotoxicity against human HT-29 cells assessed as cell growth at 10^-6 M after 48 hrs by SRB assay relative to control; settings: HT-29, 48 h, read-out: Activity
NCI-H23 = experiment: Cytotoxicity against human NCI-H23 cells assessed as cell growth at 10^-7 M after 48 hrs by SRB assay relative to control; settings: NCI-H23, 48 h, read-out: Activity
IGROV-1 [2] = experiment: Cytotoxicity against human IGROV1 cells assessed as cell growth at 10^-7 M after 48 hrs by SRB assay relative to control; settings: IGROV-1, 48 h, read-out: Activity
[3] = Cytotoxicity against human HCT116 cells after 48 hrs by SRB assay; settings: HCT-116, 48 h
TK-10 = experiment: Cytotoxicity against human TK10 cells assessed as cell growth at 10^-7 M after 48 hrs by SRB assay relative to control; settings: TK-10, 48 h, read-out: Activity
SF-539 = experiment: Cytotoxicity against human SF539 cells assessed as cell growth at 10^-6 M after 48 hrs by SRB assay relative to control; settings: SF-539, 48 h, read-out: Activity
[4] = Cytotoxicity against human OVCAR3 cells assessed as cell growth at 10^-4 M after 48 hrs by SRB assay relative to control; settings: OVCAR-3, 48 h, read-out: Activity
HOP-62 = experiment: Cytotoxicity against human HOP62 cells after 48 hrs by SRB assay; settings: HOP-62, 48 h
SF-295 [5] = experiment: Cytotoxicity against human SF295 cells assessed as cell growth at 10^-7 M after 48 hrs by SRB assay relative to control; settings: SF-295, 48 h, read-out: Activity
MDA-MB-435 = experiment: Cytotoxicity against human MDA-MB-435 cells assessed as cell growth at 10^-6 M after 48 hrs by SRB assay relative to control; settings: MDA-MB-435, 48 h, read-out: Activity
[6] = Cytotoxicity against human UACC62 cells assessed as cell growth at 10^-4 M after 48 hrs by SRB assay relative to control; settings: UACC-62, 48 h, read-out: Activity
CAKI-1 = experiment: Cytotoxicity against human Caki1 cells assessed as cell growth at 10^-4 M after 48 hrs by SRB assay relative to control; settings: CAKI-1, 48 h, read-out: Activity
[7] = Cytotoxicity against human UACC62 cells after 48 hrs by SRB assay; settings: UACC-62, 48 h
MDA-MB-231 = experiment: Cytotoxicity against human MDA-MB-231 cells after 48 hrs by SRB assay; settings: MDA-MB-231, 48 h
IGROV-1 [8] = experiment: Cytotoxicity against human IGROV1 cells assessed as cell growth at 10^-8 M after 48 hrs by SRB assay relative to control; settings: IGROV-1, 48 h, read-out: Activity
SN12C = experiment: Cytotoxicity against human SN12C cells assessed as cell growth at 10^-7 M after 48 hrs by SRB assay relative to control; settings: read-out: Activity
RXF 393 = experiment: Cytotoxicity against human RXF393 cells assessed as cell growth at 10^-4 M after 48 hrs by SRB assay relative to control; settings: RXF 393, 48 h, read-out: Activity
SK-MEL-28 [9] = experiment: Cytotoxicity against human SK-MEL-28 cells assessed as cell growth at 10^-8 M after 48 hrs by SRB assay relative to control; settings: SK-MEL-28, 48 h, read-out: Activity
SW-620 = experiment: Cytotoxicity against human SW620 cells assessed as cell growth at 10^-6 M after 48 hrs by SRB assay relative to control; settings: SW-620, 48 h, read-out: Activity
Malme-3M = experiment: Cytotoxicity against human MALME-3M cells assessed as cell growth at 10^-6 M after 48 hrs by SRB assay relative to control; settings: read-out: Activity
[10] = Cytotoxicity against human OVCAR4 cells assessed as cell growth at 10^-7 M after 48 hrs by SRB assay relative to control; settings: OVCAR-4, 48 h, read-out: Activity
HCC 2998 = experiment: Cytotoxicity against human HCC2998 cells assessed as cell growth at 10^-4 M after 48 hrs by SRB assay relative to control; settings: HCC 2998, 48 h, read-out: Activity
SNB-19 = experiment: Cytotoxicity against human SNB19 cells assessed as cell growth at 10^-6 M after 48 hrs by SRB assay relative to control; settings: SNB-19, 48 h, read-out: Activity
786-0 = experiment: Cytotoxicity against human 786-0 cells assessed as cell growth at 10^-6 M after 48 hrs by SRB assay relative to control; settings: 786-0, 48 h, read-out: Activity
T47D = experiment: Cytotoxicity against human T47D cells assessed as cell growth at 10^-4 M after 48 hrs by SRB assay relative to control; settings: read-out: Activity
[11] = Cytotoxicity against human EKVX cells after 48 hrs by SRB assay
MCF7 = experiment: Cytotoxicity against human MCF7 cells assessed as cell growth at 10^-4 M after 48 hrs by SRB assay relative to control; settings: MCF7, 48 h, read-out: Activity
HL-60(TB) = experiment: Cytotoxicity against human HL-60(TB) cells assessed as cell growth at 10^-8 M after 48 hrs by SRB assay relative to control; settings: HL-60, 48 h, read-out: Activity
[12] = Cytotoxicity against human OVCAR4 cells assessed as cell growth at 10^-4 M after 48 hrs by SRB assay relative to control; settings: OVCAR-4, 48 h, read-out: Activity
[13] = Cytotoxicity against human OVCAR8 cells assessed as cell growth at 10^-4 M after 48 hrs by SRB assay relative to control; settings: OVCAR-8, 48 h, read-out: Activity
[14] = Cytotoxicity against human OVCAR3 cells after 48 hrs by SRB assay; settings: OVCAR-3, 48 h
COLO 205 [15] = experiment: Cytotoxicity against human COLO205 cells assessed as cell growth at 10^-4 M after 48 hrs by SRB assay relative to control; settings: COLO 205, 48 h, read-out: Activity
[16] = Cytotoxicity against human PC3 cells after 48 hrs by SRB assay; settings: PC-3, 48 h
COLO 205 [17] = experiment: Cytotoxicity against human COLO205 cells assessed as cell growth at 10^-8 M after 48 hrs by SRB assay relative to control; settings: COLO 205, 48 h, read-out: Activity
SF-295 [18] = experiment: Cytotoxicity against human SF295 cells assessed as cell growth at 10^-6 M after 48 hrs by SRB assay relative to control; settings: SF-295, 48 h, read-out: Activity

`COc1ccc(CCN2COc3c([C@@H](C)CCC=C(C)C)ccc(C)c3C2)cc1OC` showed a growth at 100 µM (SK-MEL-28 [1]) of -95%, a growth at 1 µM (HT-29) of 91% and a growth at 0.1 µM (NCI-H23) of 107%. For the same compound, the growth at 0.1 µM (IGROV-1 [2]) was 97%, the GI50 [3] was 2.17 µM and the TGI [3] was 4.94 µM. The CC50 ([3]; read-out: LC50 (the source's name)) was 13.3 µM, the growth at 0.1 µM (TK-10) was 79% and the growth at 1 µM (SF-539) was 96%. For the same compound, the growth at 100 µM [4] was -94%, the GI50 (HOP-62) was 1.86 µM and the LC50 (HOP-62) was 7.05 µM. It also gave a TGI (HOP-62) of 36.2 µM, a growth at 0.1 µM (SF-295 [5]) of 92% and a growth at 1 µM (MDA-MB-435) of 96%. It also gave a growth at 100 µM [6] of -99%, a growth at 100 µM (CAKI-1) of -86% and a GI50 [7] of 3.48 µM. The LC50 (concentration killing 50% of cells) [7] was 38.7 µM, the TGI [7] was 14.6 µM and the GI50 (MDA-MB-231) was 2.76 µM. The LC50 (MDA-MB-231) was 34.5 µM, the TGI (MDA-MB-231) was 9.37 µM and the growth at 0.01 µM (IGROV-1 [8]) was 119%. It also gave a growth at 0.1 µM (SN12C) of 89%, a growth at 100 µM (RXF 393) of -92% and a growth at 0.01 µM (SK-MEL-28 [9]) of 106%. The growth at 1 µM (SW-620) was 93%, the growth at 1 µM (Malme-3M) was 79% and the growth at 0.1 µM [10] was 90%. It also gave a growth at 100 µM (HCC 2998) of -100%, a growth at 1 µM (SNB-19) of 95% and a growth at 1 µM (786-0) of 96%. It also gave a growth at 100 µM (T47D) of -91%, a GI50 [11] of 5.14 µM and an LC50 [11] of over 100 µM. It also gave a TGI [11] of 25.4 µM, a growth at 100 µM (MCF7) of -92% and a growth at 0.01 µM (HL-60(TB)) of 98%. For the same compound, the growth at 100 µM [12] was -45%, the growth at 100 µM [13] was -54% and the GI50 [14] was 3.55 µM. The LC50 [14] was 40.1 µM, the TGI [14] was 14.1 µM and the growth at 100 µM (COLO 205 [15]) was -100%. The GI50 [16] was 1.95 µM, the LC50 [16] was 49.3 µM and the TGI [16] was 5.83 µM. It also gave a growth at 0.01 µM (COLO 205 [17]) of 105% and a growth at 1 µM (SF-295 [18]) of 80%.

From ChEMBL document CHEMBL3390836, “Mannich- and LedererManasse-based analogues of the natural product S-(+)-curcuphenol as cancer proliferation and migration inhibitors” (Medchemcomm, 2012)
